Measured values from patent US11702404B2, “GLP-1R modulating compounds” (priority 2019, dated 2023).

What was measured:
GLP-1R = GLP-1R (Homo sapiens, UniProt P43220); test: GLP-1R activation: cAMP increase in CHO cells stably expressing GLP-1R; assay type: cell-based; settings: cAMP increase, CHO cells stably expressing GLP-1R, 10 point dose response, 30 minutes incubation; read-out: EC50
[1] = Microsomal stability, human liver microsomes (predicted hepatic clearance); settings: predicted from in vitro microsomal stability data

Chain of GLP-1R (P43220 24-463): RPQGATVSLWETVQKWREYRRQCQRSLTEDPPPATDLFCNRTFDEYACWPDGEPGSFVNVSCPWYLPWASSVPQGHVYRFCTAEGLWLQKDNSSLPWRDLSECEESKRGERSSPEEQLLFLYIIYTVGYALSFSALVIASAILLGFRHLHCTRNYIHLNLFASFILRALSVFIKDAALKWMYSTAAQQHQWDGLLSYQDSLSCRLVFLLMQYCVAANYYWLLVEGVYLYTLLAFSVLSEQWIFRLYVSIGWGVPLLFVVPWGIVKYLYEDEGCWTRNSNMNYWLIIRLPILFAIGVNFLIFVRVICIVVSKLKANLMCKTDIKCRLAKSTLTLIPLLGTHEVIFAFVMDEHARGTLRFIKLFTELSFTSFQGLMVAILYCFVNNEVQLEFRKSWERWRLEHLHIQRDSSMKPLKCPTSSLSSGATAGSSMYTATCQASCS

| SMILES | EC50 (GLP-1R) [nM] | Predicted Hepatic Clearance (Pred. Cl.) [1] [mL/min/kg] |
| --- | --- | --- |
| N#Cc1ccc(COc2cccc(-c3cc(F)c(Cc4nc5ccc(C(=O)O)cc5n4CCOC(F)F)cc3F)n2)c(F)c1 [Example 325, 2-(4-(6-((4-cyano-2-fluorobenzyl)oxy)pyridin-2-yl)-2,5-difluorobenzyl)-1-(2-(difluoromethoxy)ethyl)-1H-benzo[d]imidazole-6-carboxylic acid] | 1.61 | 5.67 |
| O=C(O)c1ccc2nc(Cc3c(F)cc(-c4cccc(OCc5ccc(C(F)F)cc5F)n4)c(F)c3F)n(C[C@@H]3CCO3)c2c1 [Example 758] | 0.03 | 4.5 |
| N#CCC1(Cn2c(Cc3ccc(-c4cccc(OCc5ccc(C#N)cc5F)n4)cc3F)nc3c(F)cc(C(=O)O)cc32)CC1 [Example 296, 2-(4-(6-((4-cyano-2-fluorobenzyl)oxy)pyridin-2-yl)-2-fluorobenzyl)-1-((1-(cyanomethyl)cyclopropyl)methyl)-4-fluoro-1H-benzo[d]imidazole-6-carboxylic acid] | 0.08 | 5.33 |
| N#CCC1(Cn2c(Cc3cc(F)c(-c4cccc(OCc5ccc(Cl)cc5F)n4)cc3F)nc3ccc(C(=O)O)cc32)CC1 [Example 416, 2-(4-(6-((4-chloro-2-fluorobenzyl)oxy)pyridin-2-yl)-2,5-difluorobenzyl)-1-((1-(cyanomethyl)cyclopropyl)methyl)-1H-benzo[d]imidazole-6-carboxylic acid] | 0.09 | 4.17 |
| O=C(O)c1ccc2nc(Cc3ccc(-c4cccc(OCc5ccc(Cl)cc5F)n4)c(F)c3)n(CC3(CF)CC3)c2n1 [Example 321, 2-(4-(6-((4-chloro-2-fluorobenzyl)oxy)pyridin-2-yl)-3-fluorobenzyl)-3-((1-(fluoromethyl)cyclopropyl)methyl)-3H-imidazo[4,5-b]pyridine-5-carboxylic acid] | 0.27 | 6.33 |
| CC(C1CCCO1)n1c(Cc2cc(F)c(-c3cccc(OCc4ccc(C#N)cc4F)n3)cc2F)nc2ccc(C(=O)O)cc21 (centres unmarked) [Example 833] | 6.41 | 9.83 |
| CC12CCC(Cn3c(Cc4cc(F)c(-c5cccc(OCc6ccc(C#N)cc6F)n5)cc4F)nc4ccc(C(=O)O)cc43)(C1)OC2 (centres unmarked) [Example 714] | 24.9 | 1.83 |
| N#Cc1ccc(COc2cccc(-c3ccc(Cc4nc5cc(F)c(C(=O)O)cc5n4CC4(CF)CC4)c(F)c3)n2)c(F)c1 [Example 221, 2-(4-(6-((4-cyano-2-fluorobenzyl)oxy)pyridin-2-yl)-2-fluorobenzyl)-5-fluoro-1-((1-(fluoromethyl)cyclopropyl)methyl)-1H-benzo[d]imidazole-6-carboxylic acid] | 5.28 | 3.5 |
| COCCn1c(Cc2ccc(-c3cccc(OCn4ccc(C(N)=O)cc4=O)n3)cc2F)nc2ccc(C(=O)O)cc21 [Example 502, 2-(4-(6-((4-carbamoyl-2-oxopyridin-1(2H)-yl)methoxy)pyridin-2-yl)-2-fluorobenzyl)-1-(2-methoxyethyl)-1H-benzo[d]imidazole-6-carboxylic acid] | 2380 | 2.67 |
| COCCn1c(Cc2ccc(-c3cccc(OCc4cc(F)c(C#N)cc4F)n3)cc2F)nc2ccc(C(=O)O)cc21 [Example 262, 2-(4-(6-((4-cyano-2,5-difluorobenzyl)oxy)pyridin-2-yl)-2-fluorobenzyl)-1-(2-methoxyethyl)-1H-benzo[d]imidazole-6-carboxylic acid] | 28.6 | <1.83 |
| N#Cc1ccc(COc2cccc(-c3ccc(Cc4nc5c(F)cc(C(=O)O)cc5n4C[C@@H](O)CCO)cc3F)n2)c(F)c1 [Example 471, (S)-2-(4-(6-((4-cyano-2-fluorobenzyl)oxy)pyridin-2-yl)-3-fluorobenzyl)-1-(2,4-dihydroxybutyl)-4-fluoro-1H-benzo[d]imidazole-6-carboxylic] | 13.7 | 4 |
| N#Cc1ccc(COc2cccc(-c3ccc(Cc4nc5ccc(C(=O)O)cc5n4CC4CCS4(=O)=O)c(F)c3)n2)c(F)c1 (centres unmarked) [Example 17, 2-(4-(6-((4-cyano-2-fluorobenzyl)oxy)pyridin-2-yl)-2-fluorobenzyl)-1-((1,1-dioxidothietan-2-yl)methyl)-1H-benzo[d]imidazole-6-carboxylic acid] | 11 | 2.67 |
| N#Cc1ccc(COc2cccc(-c3ccc(Cc4nc5ccc(C(=O)O)cc5n4CCOC(F)F)c(F)c3)n2)c(F)c1 [Example 324, 2-(4-(6-((4-cyano-2-fluorobenzyl)oxy)pyridin-2-yl)-2-fluorobenzyl)-1-(2-(difluoromethoxy)ethyl)-1H-benzo[d]imidazole-6-carboxylic acid] | 5.22 | 2.83 |
| N#Cc1ccc(COc2nccc(-c3cc(F)c(Cc4nc5ccc(C(=O)O)cc5n4CC45CC(CO4)C5)cc3F)n2)c(F)c1 [Example 645] | 2.05 | 9.17 |
| CO[C@H]1COC[C@@H]1n1c(Cc2cc(F)c(-c3cccc(OCc4ccc(C#N)cc4F)n3)cc2F)nc2ccc(C(=O)O)cc21 [Example 712] | 2.55 | 6.83 |
| N#Cc1ccc(COc2cccc(-c3ccc(Cc4nc5c(F)cc(C(=O)O)cc5n4C[C@@H]4CCO4)cc3)n2)c(F)c1 [Example 633] | 0.17 | 4.83 |
| COCCn1c(Cc2ccc(-c3cccc(OCc4ccc(C#N)nc4)n3)cc2F)nc2ccc(C(=O)O)cc21 [Example 216, 2-(4-(6-((6-cyanopyridin-3-yl)methoxy)pyridin-2-yl)-2-fluorobenzyl)-1-(2-methoxyethyl)-1H-benzo[d]imidazole-6-carboxylic acid] | 110 | <1.83 |
| COCCn1c(Cc2cc(F)c(-c3cccc(OCc4ccc(C(N)=O)cc4F)n3)cc2F)nc2ccc(C(=O)O)cc21 [Example 554, 2-(4-(6-((4-carbamoyl-2-fluorobenzyl)oxy)pyridin-2-yl)-2,5-difluorobenzyl)-1-(2-methoxyethyl)-1H-benzo[d]imidazole-6-carboxylic acid] | 48.2 | 4.17 |
| N#Cc1ccc(COc2cccc(-c3ccc(Cc4nc5ccc(C(=O)O)nc5n4CC4(CF)CC4)c(F)c3)n2)c(F)c1 [Example 355, 2-(4-(6-((4-cyano-2-fluorobenzyl)oxy)pyridin-2-yl)-2-fluorobenzyl)-3-((1-(fluoromethyl)cyclopropyl)methyl)-3H-imidazo[4,5-b]pyridine-5-carboxylic acid] | 0.97 | 3.3 |
| COCCn1c(Cc2cc(F)c(-c3ccc(OC)c(OCc4ccc(C#N)cc4F)n3)cc2F)nc2ccc(C(=O)O)cc21 [Example 541, 2-(4-(6-((4-cyano-2-fluorobenzyl)oxy)-5-methoxypyridin-2-yl)-2,5-difluorobenzyl)-1-(2-methoxyethyl)-1H-benzo[d]imidazole-6-carboxylic acid] | 28.3 | 3.67 |
| N#CCC1(Cn2c(Cc3ccc(-c4cccc(OCc5ccc(C#N)cc5F)n4)cc3C#N)nc3ccc(C(=O)O)cc32)CC1 [Example 388, 2-(2-cyano-4-(6-((4-cyano-2-fluorobenzyl)oxy)pyridin-2-yl)benzyl)-1-((1-(cyanomethyl)cyclopropyl)methyl)-1H-benzo[d]imidazole-6-carboxylic acid] | 0.24 | 5.17 |
| N#Cc1ccc(COc2cccc(-c3cc(F)c(Cc4nc5ccc(C(=O)O)cc5n4C[C@@H]4CCO4)cc3F)n2)c(F)c1 [Example 444, (S)-2-(4-(6-((4-cyano-2-fluorobenzyl)oxy)pyridin-2-yl)-2,5-difluorobenzyl)-1-(oxetan-2-ylmethyl)-1H-benzo[d]imidazole-6-carboxylic acid] | 0.25 | 4.13 |
| N#Cc1ccc(COc2cccc(-c3cc(F)c(Cc4nc5c(F)cc(C(=O)O)cc5n4C[C@@H]4CCO4)cc3F)n2)cn1 [Example 659] | 0.17 | 3.5 |
| COCCn1c(Cc2ccc(-c3cccc(OCc4ccc(C#N)cc4F)n3)cc2-c2cc[nH]n2)nc2ccc(C(=O)O)cc21 [Example 260, 2-(4-(6-((4-cyano-2-fluorobenzyl)oxy)pyridin-2-yl)-2-(1H-pyrazol-3-yl)benzyl)-1-(2-methoxyethyl)-1H-benzo[d]imidazole-6-carboxylic acid] | 113 | 10.8 |
| O=C(O)c1cc(F)c2nc(Cc3cc(F)c(-c4cccc(OCc5ccc(C(F)F)cc5F)n4)cc3F)n(C[C@@H]3CCO3)c2c1 [Example 643] | 0.03 | 5 |
| COCCn1c(Cc2ncc(-c3cccc(OCc4ccc(C#N)cc4F)n3)cc2F)nc2ccc(C(=O)O)cc21 [Example 60, 2-{[5-[6-[(4-cyano-2-fluoro-phenyl)methoxy]-2-pyridyl]-3-fluoro-2-pyridyl]methyl}-3-(2-methoxyethyl)benzimidazole-5-carboxylic acid] | 30 | <1.83 |
| N#Cc1ccc(COc2nccc(-c3ccc(Cc4nc5ccc(C(=O)O)cc5n4CC4(CF)CC4)c(F)c3)n2)c(F)c1 [Example 344, 2-(4-(2-((4-cyano-2-fluorobenzyl)oxy)pyrimidin-4-yl)-2-fluorobenzyl)-1-((1-(fluoromethyl)cyclopropyl)methyl)-1H-benzo[d]imidazole-6-carboxylic acid] | 1.56 | <1.83 |
| O=C(O)c1ccc2nc(Cc3ccc(-c4ccc(F)c(OCc5ccc(Cl)cc5F)c4)cc3F)n(CCO)c2c1 [Example 476, 2-[[4-[3-[(4-chloro-2-fluoro-phenyl)methoxy]-4-fluoro-phenyl]-2-fluoro-phenyl]methyl]-3-(2-hydroxyethyl)benzimidazole-5-carboxylic acid] | 366 | 2.17 |
